Assay results as given in patent US20200000793A1, “TOPICAL FORMULATIONS OF TARGETED NITROXIDE AGENTS” (University of Pittsburgh - Of the Commonwealth System of …, priority 2011, published 2020).

Tests used:
[1] = tested on: oxidative stress induced skin damage; assay: Mice irradiated with 35 GY, JP4-039 at 0.5, 24 and 48 hours: barrier function (TEWL), fibrosis, thickening; format: in vivo
Method: Clinically relevant disruption of skin barrier function results in increased water loss from the skin surface. This can be measured non-invasively by the Transepidermal Water Loss (TEWL) assay. Increasing TEWL values directly correlate with damage to the skin's barrier function.
Groups of mice were irradiated with 35 GY to induce oxidative stress and then treated with JP4-039 or formulation alone 0.5, 24 and 48 hours after exposure. Skin was evaluated 21 days after initial treatment. Damage to skin barrier function was determined by TEWL. Results are reported as % recovery from 35 GY damage defined as (((radiated average−test sample value+0 GY average)/(treated average)*100) (FIG. 18a).
Fibrosis was evaluated histologically by evaluating the extent of collagen infiltration in the skin sections in (FIG. 18b) (100×). Dermal thickness is indicated by the arrows and collagen fibers were identified by Masson's Trichrome staining (blue). Representative H&E stained sections are provided in (FIG. 18c) with arrows showing epidermal thickness (200×). Dermal (FIG. 18d 100×) and epidermal (FIG. 18e) thickness (200×) was quantified at 5 sites within 4 representative histologic images for each mouse using NIH Image J Software. Statistical significance was determined by ANOVA followed by a Bonferroni post test set at p<0.05.

[2] = tested on: human skin; assay: Living human skin samples, 60 GY irradiation followed by topical JP4-039: oxidative skin damage
Method: Oxidative skin damage directly correlates with epidermal thickening, an increase in apoptotic (dying) cells (measured by TUNEL and Caspase release) and an increase in 8-oxoguanine positive cells. Further, oxidative damage is a result of free radical formation that correlates with increases in carbonylated proteins and reduced levels of GSH. […] Living human skin samples were divided and groups of skin samples were treated with either 60 GY irradiation (60 GY), 60 GY followed by topical JP4-039(60 GY+JP4-039), 60 GY followed by formulation without JP4-039(60 GY+Formulation), or were cultured without irradiation (0 GY CONTROL). Photographs in FIG. 10 a) are representative H&E sections (400×). […] In FIG. 10 c) sections were stained with antibody against 8-oxoguanine followed by DAB and counterstained with hemotoxalin. Positive cells have brown nuclei (400×). Epidermal thickness FIG. 10 (d) was determined by photographing 5 consecutive H&E sections (400×) and measuring the length of the epidermis at 5 sites within each photograph. The percentage of TUNEL positive cells FIG. 10 (e) and 8 oxoguanine positive cells FIG. 10 (f) was determined by counting all epidermal cells (positive and negative) in five consecutive 400× sections beginning with the site of maximal apoptosis. Carbonyl Protein FIG. 10 (g), Caspase 3/8 FIG. 10 (h) and GSH FIG. 10 (i) levels were determined in skin homogenates and were normalized by mg protein. Carbonyl protein samples were performed in triplicate from pooled homogenates. All graphical data were converted to % increase from control and are presented as mean+sem. Statistical significance was determined by ANOVA followed by a Bonferroni post test with significance set at p<0.05.

[3] = tested on: irradiation induced skin damage; assay: Mouse leg skin irradiated with 6 MeV electron beam, topical F14 emulsion after irradiation: skin damage; format: in vivo, C57BL/6NHsd mice
Method: Mouse flank was shaved and depilated 24 hrs. prior to irradiation with 35 GY using a 6 MeV electron beam.
JP4-039 was topically applied in a liposome formulation (F14-JP4-039 Emulsion: JP4-039 (2 mg/ml) was emulsified in sesame seed oil (100 mg/ml), and soy phosphatidyl choline (50 mg/ml) by sonication) 30 minutes after irradiation and daily for the next 3 days. Mice were photographed and skin damage scored by clinical criteria. Leg contracture was measured by comparing maximal extension between control and irradiated legs. Histological characterization of cellular infiltrates and collagen levels was performed.
JP4-039 was topically applied in a the above-described liposome formulation 30 minutes after irradiation. Skin samples taken at 4 hours. Analyzed for apoptosis via caspase 3 and TUNEL. Antioxidant functions evaluated by changes in GSH levels. All quantitative data presented as means±sem and significance determined by ANOVA followed by a Bonferoni post test set at p<0.05.
Materials/Methods: The right legs of C57BL/6NHsd mice were shaved and treated with Nair to remove the fur. Twenty four hours later the right legs were irradiated to doses of 30 or 35 Gy using 6 MeV electron beam, bolused to bring the surface dose to 100%. At 30 minutes after irradiation, 24, 48 and 72 hours, F14 emulsion only or F14-JP4-039 (100 μg in 50 μl) was applied to the skin. Photos were taken for visual evidence of skin damage and leg contracture was measured as a functional evaluation of tissue damage. Histological characterization of skin thickening, cellular infiltrates and collagen evaluation was also performed. To evaluate the mechanism of radiation damage mitigation, skin samples were assayed at 4 hours after irradiation for markers of apoptosis and oxidative stress. Results: Skin damage was scored on day 21 after irradiation. […] Assessment of Irradiation Damage: Skin damage was measured using visual evidence seen from photographs of the skin and measuring leg contracture. […]

[4] = In vivo topical delivery in lipid-based formulation, amount retained in tape-stripped skin; settings: 2 mg/ml in saline with surfactants and egg PC, liposome size 200 nm; tape-stripped skin of topically treated mice
Method: For these studies, 2 mg/ml JP4-039 was formulated in saline with a mixture of surfactants with egg PC by sonication to a liposome size of 200 nm. Harvested, tape-stripped (to remove superficial drug) skin from topically treated mice was processed as described above to determine the amount of JP4-039 retained in the skin. We found cutaneous retention to be in the range of 11.7+/−3.1 pmole/mg, a level compatible with therapeutic efficacy.

[5] = living human skin explants, topical
[6] = F14 emulsion applied at 30 min after irradiation

CC(C)C[C@@H](/C=C/CC(=O)NC1CC(C)(C)N([O])C(C)(C)C1)NC(=O)OC(C)(C)C [JP4-039, (S,E)-5-(tert-Butoxycarbonylamino)-7-methyloct-3-enoic Acid-TEMPO]
fibrosis associated changes (epidermal and dermal thickening, collagen deposition) ([1]; day 21): prevents/mitigates | radiation induced TEWL increases ([1]; day 21, p=0.011): significantly reversed | depletion of the antioxidant GSH [2, 5]: decreasing | epidermal thickening associated with oxidative skin damage [2, 5]: reduction | formation of protein carbonyls [2, 5]: reduction | radiation induced cellular apoptosis [2, 5]: reduction | oxidative damage of human skin ([2]; living human skin samples, 60 GY followed by topical JP4-039): protects human skin from oxidative damage | caspase 3 activity [3, 6]: decreased | thickening of the skin [3, 6]: decreased | antioxidant function in the skin ([3]; topical 30 minutes after 35 GY, skin taken at 4 hours, GSH levels): potent antioxidant function | cutaneous retention [4]: 11.7 ± 3.1 pmol/mg
